Laboratory results published in US12606541B2, “PPARg modulators and methods of use” (Eisai R&D Management Co., Ltd., priority 2020, dated 2026).

Target: T1, His6-TEV-PPARγ-(234-505) (Homo sapiens, UniProt P37231)
T1 construct: The His6-TEV-PPARγ-(234-505) protein for assay was expressed and purified; TEV cleavage site (N); made in house
T1 sequence (P37231 234-505): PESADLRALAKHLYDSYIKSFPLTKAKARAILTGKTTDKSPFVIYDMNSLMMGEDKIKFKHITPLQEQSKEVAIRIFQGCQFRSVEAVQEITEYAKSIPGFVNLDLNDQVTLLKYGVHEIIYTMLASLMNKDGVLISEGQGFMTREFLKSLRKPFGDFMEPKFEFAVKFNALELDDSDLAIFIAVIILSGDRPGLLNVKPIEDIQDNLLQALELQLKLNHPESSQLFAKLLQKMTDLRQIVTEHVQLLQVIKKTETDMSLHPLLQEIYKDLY
Experiment: TR-FRET Assay to Measure Co-R Peptide Recruitment to PPARγ
Format: biochemical
Settings: Co-R peptide recruitment to PPARγ; read-out: TR-FRET AC50
Procedure, shortened: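 Corepressor recruitment is measured by adding terbium-labeled anti-His antibody and FITC SMRT-ID2 peptide, at 5 and 200 nM final, after a 20-minute room-temperature protein–compound incubation. After one further hour, signal is converted to percent response between DMSO and 500 nM T0070907 wells.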

AC50, > 1 µM:
COc1cccc(OC)c1CNC(=O)C1CCN(C(=O)c2cc(-c3ccncc3)[nH]n2)CC1 [N-[(2,6-dimethoxyphenyl)methyl]-1-[5-(pyridin-4-yl)-1H-pyrazole-3-carbonyl]piperidine-4-carboxamide], Cc1cc(CNC(=O)C2CCN(C(=O)c3cc(-c4ccncc4)[nH]n3)CC2)cc(C)n1 [N-[(2,6-dimethylpyridin-4-yl)methyl]-1-[5-(pyridin-4-yl)-1H-pyrazole-3-carbonyl]piperidine-4-carboxamide], O=C(NCc1ccccc1Cl)C1CCN(C(=O)c2cc(-c3cccnc3)[nH]n2)CC1 [N-[(2-chlorophenyl)methyl]-1-[5-(pyridin-3-yl)-1H-pyrazole-3-carbonyl]piperidine-4-carboxamide], O=C(NCc1ccccc1Cl)C1CCN(C(=O)c2cc(-c3ccncc3)[nH]n2)CC1 [N-[(2-chlorophenyl)methyl]-1-[5-(pyridin-4-yl)-1H-pyrazole-3-carbonyl]piperidine-4-carboxamide], O=C(NCc1ccccc1F)C1CCN(C(=O)c2cc(-c3ccncc3)[nH]n2)CC1 [N-[(2-fluorophenyl)methyl]-1-[5-(pyridin-4-yl)-1H-pyrazole-3-carbonyl]piperidine-4-carboxamide], COc1c(C)cccc1CNC(=O)C1CCN(C(=O)c2cc(-c3ccncc3)[nH]n2)CC1 [N-[(2-methoxy-3-methylphenyl)methyl]-1-[5-(pyridin-4-yl)-1H-pyrazole-3-carbonyl]piperidine-4-carboxamide], COc1nc(C)cc(C)c1CNC(=O)C1CCN(C(=O)c2cc(-c3ccncc3)[nH]n2)CC1 [N-[(2-methoxy-4,6-dimethylpyridin-3-yl)methyl]-1-[5-(pyridin-4-yl)-1H-pyrazole-3-carbonyl]piperidine-4-carboxamide], COc1ccc(C)cc1CNC(=O)C1CCN(C(=O)c2cc(-c3ccncc3)[nH]n2)CC1 [N-[(2-methoxy-5-methylphenyl)methyl]-1-[5-(pyridin-4-yl)-1H-pyrazole-3-carbonyl]piperidine-4-carboxamide], COc1ccccc1CNC(=O)C1CCN(C(=O)c2cc(-c3ccncc3)[nH]n2)CC1 [N-[(2-methoxyphenyl)methyl]-1-[5-(pyridin-4-yl)-1H-pyrazole-3-carbonyl]piperidine-4-carboxamide], Cc1cc(CNC(=O)C2CCN(C(=O)c3cc(-c4ccncc4)[nH]n3)CC2)ccn1 [N-[(2-methylpyridin-4-yl)methyl]-1-[5-(pyridin-4-yl)-1H-pyrazole-3-carbonyl]piperidine-4-carboxamide], O=C(NCc1ccc2c(c1)OCO2)C1CCCN(C(=O)c2cc(-c3ccncc3)[nH]n2)C1 (centres unmarked) [N-[(2H-1,3-benzodioxol-5-yl)methyl]-1-[5-(pyridin-4-yl)-1H-pyrazole-3-carbonyl]piperidine-3-carboxamide], O=C(NCc1ccc2c(c1)OCO2)C1CCN(C(=O)c2cc(-c3ccncc3)[nH]n2)CC1 [N-[(2H-1,3-benzodioxol-5-yl)methyl]-1-[5-(pyridin-4-yl)-1H-pyrazole-3-carbonyl]piperidine-4-carboxamide], C[C@@H](CNC(=O)C1CCN(C(=O)c2cc(-c3ccncc3)[nH]n2)CC1)c1ccccc1 [N-[(2R)-2-phenylpropyl]-1-[5-(pyridin-4-yl)-1H-pyrazole-3-carbonyl]piperidine-4-carboxamide], C[C@H](CNC(=O)C1CCN(C(=O)c2cc(-c3ccncc3)[nH]n2)CC1)c1ccccc1 [N-[(2S)-2-phenylpropyl]-1-[5-(pyridin-4-yl)-1H-pyrazole-3-carbonyl]piperidine-4-carboxamide], O=C(NCc1ccc(Cl)c(Cl)c1)C1CCN(C(=O)c2cc(-c3cccnc3)[nH]n2)CC1 [N-[(3,4-dichlorophenyl)methyl]-1-[5-(pyridin-3-yl)-1H-pyrazole-3-carbonyl]piperidine-4-carboxamide], COc1c(Cl)cccc1CNC(=O)C1CCN(C(=O)c2cc(-c3ccncc3)[nH]n2)CC1 [N-[(3-chloro-2-methoxyphenyl)methyl]-1-[5-(pyridin-4-yl)-1H-pyrazole-3-carbonyl]piperidine-4-carboxamide], COc1cc(-c2cc(C(=O)N3CCC(C(=O)NCc4cccc(Cl)c4)CC3)n[nH]2)c(C)cn1 [N-[(3-chlorophenyl)methyl]-1-[5-(2-methoxy-5-methylpyridin-4-yl)-1H-pyrazole-3-carbonyl]piperidine-4-carboxamide], O=C(NCc1cccc(Cl)c1)C1CCN(C(=O)c2cc(-c3ccncc3)[nH]n2)CC1 [N-[(3-chlorophenyl)methyl]-1-[5-(pyridin-4-yl)-1H-pyrazole-3-carbonyl]piperidine-4-carboxamide], COc1cc(-c2cc(C(=O)N3CC4CC3CC4C(=O)NCc3cccc(Cl)c3)n[nH]2)c(F)cn1 (centres unmarked) [N-[(3-chlorophenyl)methyl]-2-[5-(5-fluoro-2-methoxypyridin-4-yl)-1H-pyrazole-3-carbonyl]-2-azabicyclo[2.2.1]heptane-5-carboxamide], COc1cc(-c2cc(C(=O)N3CC4CCC(C3)C4C(=O)NCc3cccc(Cl)c3)n[nH]2)c(F)cn1 (centres unmarked) [N-[(3-chlorophenyl)methyl]-3-[5-(5-fluoro-2-methoxypyridin-4-yl)-1H-pyrazole-3-carbonyl]-3-azabicyclo[3.2.1]octane-8-carboxamide], COc1cccc(CNC(=O)C2CCN(C(=O)c3cc(-c4ccncc4)[nH]n3)CC2)c1 [N-[(3-methoxyphenyl)methyl]-1-[5-(pyridin-4-yl)-1H-pyrazole-3-carbonyl]piperidine-4-carboxamide], Cc1cccc(CNC(=O)C2CCCN(C(=O)c3cc(-c4ccncc4)[nH]n3)C2)c1 (centres unmarked) [N-[(3-methylphenyl)methyl]-1-[5-(pyridin-4-yl)-1H-pyrazole-3-carbonyl]piperidine-3-carboxamide], O=C(N[C@@H]1CCN(Cc2ccccc2)C1)C1CCN(C(=O)c2cc(-c3cccnc3)[nH]n2)CC1 [N-[(3R)-1-benzylpyrrolidin-3-yl]-1-[5-(pyridin-3-yl)-1H-pyrazole-3-carbonyl]piperidine-4-carboxamide], O=C(N[C@@H]1CCN(Cc2ccccc2)C1)C1CCN(C(=O)c2cc(-c3ccncc3)[nH]n2)CC1 [N-[(3R)-1-benzylpyrrolidin-3-yl]-1-[5-(pyridin-4-yl)-1H-pyrazole-3-carbonyl]piperidine-4-carboxamide], O=C(N[C@H]1CCN(Cc2ccccc2)C1)C1CCN(C(=O)c2cc(-c3cccnc3)[nH]n2)CC1 [N-[(3S)-1-benzylpyrrolidin-3-yl]-1-[5-(pyridin-3-yl)-1H-pyrazole-3-carbonyl]piperidine-4-carboxamide], Cc1nc(CNC(=O)C2CCN(C(=O)c3cc(-c4ccncc4)[nH]n3)CC2)sc1C [N-[(4,5-dimethyl-1,3-thiazol-2-yl)methyl]-1-[5-(pyridin-4-yl)-1H-pyrazole-3-carbonyl]piperidine-4-carboxamide], Cc1cc(CNC(=O)C2CCN(C(=O)c3cc(-c4ccncc4)[nH]n3)CC2)sc1C [N-[(4,5-dimethylthiophen-2-yl)methyl]-1-[5-(pyridin-4-yl)-1H-pyrazole-3-carbonyl]piperidine-4-carboxamide], COc1cc(Cl)ccc1CNC(=O)C1CCN(C(=O)c2cc(-c3ccncc3)[nH]n2)CC1 [N-[(4-chloro-2-methoxyphenyl)methyl]-1-[5-(pyridin-4-yl)-1H-pyrazole-3-carbonyl]piperidine-4-carboxamide], O=C(NCc1ccc(Cl)cc1)C1CCN(C(=O)c2cc(-c3cccnc3)[nH]n2)CC1 [N-[(4-chlorophenyl)methyl]-1-[5-(pyridin-3-yl)-1H-pyrazole-3-carbonyl]piperidine-4-carboxamide], O=C(NCc1ccc(Cl)cc1)C1CCN(C(=O)c2cc(-c3ccncc3)[nH]n2)CC1 [N-[(4-chlorophenyl)methyl]-1-[5-(pyridin-4-yl)-1H-pyrazole-3-carbonyl]piperidine-4-carboxamide], O=C(NCc1nc(C2CC2)cs1)C1CCN(C(=O)c2cc(-c3ccncc3)[nH]n2)CC1 [N-[(4-cyclopropyl-1,3-thiazol-2-yl)methyl]-1-[5-(pyridin-4-yl)-1H-pyrazole-3-carbonyl]piperidine-4-carboxamide], CCc1csc(CNC(=O)C2CCN(C(=O)c3cc(-c4ccncc4)[nH]n3)CC2)n1 [N-[(4-ethyl-1,3-thiazol-2-yl)methyl]-1-[5-(pyridin-4-yl)-1H-pyrazole-3-carbonyl]piperidine-4-carboxamide], COc1ccc(CNC(=O)C2CCN(C(=O)c3cc(-c4ccncc4)[nH]n3)CC2)cc1 [N-[(4-methoxyphenyl)methyl]-1-[5-(pyridin-4-yl)-1H-pyrazole-3-carbonyl]piperidine-4-carboxamide], Cc1csc(CNC(=O)C2CCN(C(=O)c3cc(-c4ccncc4)[nH]n3)CC2)n1 [N-[(4-methyl-1,3-thiazol-2-yl)methyl]-1-[5-(pyridin-4-yl)-1H-pyrazole-3-carbonyl]piperidine-4-carboxamide], Cc1csc(CNC(=O)C2CCN(C(=O)c3cc(-c4ccncc4)[nH]n3)CC2)c1 [N-[(4-methylthiophen-2-yl)methyl]-1-[5-(pyridin-4-yl)-1H-pyrazole-3-carbonyl]piperidine-4-carboxamide]
